Test results from patent publication US10681909B2, “Herbicidal triazoles” (FMC Corporation, priority 2014, dated 2020).

How the values were obtained:
galium = experiment: Test C preemergence; type: in vivo, Galium aparine; details: for Plant response rating (scale of 0 to 100 where 0 is no effect and 100 is complete control): Galium, preemergence; for Galium plant response rating (0 to 100): Preemergence, visual rating after 13 to 15 d
Text: (§1) Seeds of plant species selected from blackgrass (Alopecurus myosuroides), ryegrass, Italian (Italian ryegrass, Lolium multiflorum), wheat (winter wheat, Triticum aestivum), galium (catchweed bedstraw, Galium aparine), corn (Zea mays), crabgrass, large (large crabgrass, Digitaria sanguinalis), foxtail, giant, (giant foxtail, Setaria faberii), johnsongrass (Sorghum halepense), lambsquarters (Chenopodium album), morningglory (Ipomoea coccinea), nutsedge, yellow (yellow nutsedge, Cyperus esculentus), pigweed (Amaranthus retroflexus), ragweed (common ragweed, Ambrosia elatior), soybean (Glycine max), barnyardgrass (Echinochloa crus-galli), oilseed rape (Brassica napus), waterhemp (common waterhemp, Amaranthus rudis), and velvetleaf (Abutilon theophrasti) were planted into a blend of loam soil and sand and treated preemergence with test chemicals formulated in a non-phytotoxic solvent mixture which included a surfactant. At the same time, plants selected from these crop and weed species and also chickweed (common chickweed, Stellaria media), oat, wild (wild oat, Avena fatua), and kochia (Kochia scoparia), were planted in pots containing Sunshine Redi-Earth® planting medium comprising spaghnum peat moss, vermiculite, starter nutrients and dolomitic limestone and treated with postemergence applications of test chemicals formulated in the same manner. Plants ranged in height from 2 to 18 cm (1- to 4-leaf stage) for postemergence treatments. […] A dash (-) response means no test result.

ryegrass, Italian = experiment: Test C preemergence; type: in vivo, Lolium multiflorum; details: for Ryegrass, Italian plant response rating (0 to 100): Preemergence, visual rating after 13 to 15 d; for Plant response rating (scale of 0 to 100 where 0 is no effect and 100 is complete control): Ryegrass, Italian, preemergence
Text: as §1

johnsongrass = experiment: Test C preemergence; type: in vivo, Sorghum halepense; details: for Plant response rating (scale of 0 to 100 where 0 is no effect and 100 is complete control): Johnsongrass, preemergence; for Johnsongrass plant response rating (0 to 100): Preemergence, visual rating after 13 to 15 d
Text: as §1

nutsedge, yellow = experiment: Test C preemergence; type: in vivo, Cyperus esculentus; details: for Plant response rating (scale of 0 to 100 where 0 is no effect and 100 is complete control): Nutsedge, Yellow, preemergence; for Nutsedge, Yellow plant response rating (0 to 100): Preemergence, visual rating after 13 to 15 d
Text: as §1

velvetleaf = experiment: Test A postemergence; type: in vivo, Abutilon theophrasti; details: Abutilon theophrasti, post-emergence, 240 h, 0 to 100 scale (0 no effect, 100 complete control), approx. 10 d, read-out: Plant response rating, Velvetleaf; for pest or weed control at 125 g/ha: 125 g ai/ha; for pest or weed control at 500 g/ha: 500 g ai/ha
How it was run: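 For preemergence, seeds were sown in a loam soil-sand blend and given a directed soil spray of test chemical in a non-phytotoxic solvent mixture with surfactant. For postemergence, plants in pots of the same blend were sprayed with the same formulation at the one- to two-leaf stage, 2 to 10 cm tall.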

Row | Structure (SMILES) | Plant response rating (scale of 0 to 100 where 0 is no effect and 100 is complete control) (galium; 125 g ai/ha) | Plant response rating (scale of 0 to 100 where 0 is no effect and 100 is complete control) (galium; 250 g ai/ha) | Galium plant response rating (0 to 100) (galium; 31 g ai/ha) | Galium plant response rating (0 to 100) (galium; 62 g ai/ha) | Ryegrass, Italian plant response rating (0 to 100) (ryegrass, Italian; 31 g ai/ha) | Ryegrass, Italian plant response rating (0 to 100) (ryegrass, Italian; 62 g ai/ha) | Plant response rating (scale of 0 to 100 where 0 is no effect and 100 is complete control) (ryegrass, Italian; 125 g ai/ha) | Plant response rating (scale of 0 to 100 where 0 is no effect and 100 is complete control) (ryegrass, Italian; 250 g ai/ha) | Plant response rating (scale of 0 to 100 where 0 is no effect and 100 is complete control) (johnsongrass; 125 g ai/ha) | Plant response rating (scale of 0 to 100 where 0 is no effect and 100 is complete control) (johnsongrass; 250 g ai/ha) | Johnsongrass plant response rating (0 to 100) (johnsongrass; 31 g ai/ha) | Johnsongrass plant response rating (0 to 100) (johnsongrass; 62 g ai/ha) | Plant response rating (scale of 0 to 100 where 0 is no effect and 100 is complete control) (nutsedge, yellow; 125 g ai/ha) | Plant response rating (scale of 0 to 100 where 0 is no effect and 100 is complete control) (nutsedge, yellow; 250 g ai/ha) | Nutsedge, Yellow plant response rating (0 to 100) (nutsedge, yellow; 31 g ai/ha) | Nutsedge, Yellow plant response rating (0 to 100) (nutsedge, yellow; 62 g ai/ha) | pest or weed control at 125 g/ha (velvetleaf) [%] | pest or weed control at 500 g/ha (velvetleaf) [%]
1 | COc1nc(-c2ccccc2)nn1Cc1ccnc(C(F)(F)F)c1 [Compound 32] | 60 | 80 | 0 | 0 | 0 | 0 | 0 | 10 | 30 | 60 | 0 | 0 | 5 | 20 | 0 | 0 |  | 
2 | CS(=O)(=O)c1nc(-c2ccc(F)cc2)nn1Cc1ccnc(C(F)(F)F)c1 [Compound 29, 4-[[3-(4-fluorophenyl)-5-(methylsulfonyl)-1H-1,2,4-triazole-1-yl]methyl]-2-(trifluoromethyl)pyridine] |  |  |  |  |  |  |  |  |  |  |  |  |  |  |  |  | 0 | 0
3 | Cn1nc(-c2ccc(F)cc2)nc1Oc1cccc(C(F)(F)F)c1 [Compound 5, 3-(4-fluorophenyl)-1-methyl-5-[3-(trifluoromethyl)phenoxy]-1H-1,2,4-triazole] |  |  |  |  |  |  |  |  |  |  |  |  |  |  |  |  | 30 | 60
4 | CCn1nc(-c2ccc(F)cc2)nc1C(=O)c1ccnc(C(F)(F)F)c1 [Compound 19, [1-ethyl-3-(4-fluorophenyl)-1H-1,2,4-triazol-5-yl][2-(trifluoromethyl)-4-pyridinyl]methanone] |  |  |  |  |  |  |  |  |  |  |  |  |  |  |  |  | 0 | 0
5 | CCCn1nc(-c2ccc(F)cc2)nc1Cc1ccnc(C(F)(F)F)c1 [Compound 17, 4-[[3-(4-fluorophenyl)-1-propyl-1H-1,2,4-triazol-5-yl]methyl]-2-(trifluoromethyl)pyridine] |  |  |  |  |  |  |  |  |  |  |  |  |  |  |  |  | 90 | 100
6 | CCn1nc(-c2ccc(F)cc2)nc1C(O)c1ccnc(C(F)(F)F)c1 (stereo not drawn) [Compound 15, α-[1-Ethyl-3-(4-fluorophenyl)-1H-1,2,4-triazol-5-yl]-2-(trifluoromethyl)-4-pyridinemethanol] |  |  |  |  |  |  |  |  |  |  |  |  |  |  |  |  | 0 | 0
7 | COc1nc(-c2ccc(F)cc2)nn1Cc1ccnc(C(F)(F)F)c1 [Compound 9, 4-[[3-(4-fluorophenyl)-5-methoxy-1H-1,2,4-triazol-1-yl]methyl]-2-(trifluoromethyl)pyridine] | 90 | 98 | 5 | 5 | 5 | 25 | 65 | 85 | 65 | 80 | 5 | 20 | 35 | 50 | 10 | 5 | 50 | 90
8 | Cn1nc(-c2ccc(F)cc2)nc1C(O)c1ccnc(C(F)(F)F)c1 (stereo not drawn) [Compound 14, α-[3-(4-fluorophenyl)-1-methyl-1H-1,2,4-triazol-5-yl]-2-(trifluoromethyl)-4-pyridinemethanol] |  |  |  |  |  |  |  |  |  |  |  |  |  |  |  |  | 30 | 50
9 | CCCc1nc(-c2ccc(F)cc2)nn1Cc1ccnc(C(F)(F)F)c1 [Compound 6, 4-[[3-(4-fluorophenyl)-5-propyl-1H-1,2,4-triazol-1-yl]methyl]-2-(trifluoromethyl)pyridine] | 100 | 100 | 90 | 98 | 30 | 70 | 80 | 100 | 85 | 100 | 60 | 75 | 35 | 50 | 25 | 30 | 90 | 100
